In patent US20210070747A1, “2(1H)-QUINOLINONE DERIVATIVE” (priority 2017, published 2021) one finds MIC and IC50 data, which are given here for 21 compounds.

Values after ≈ are worked out from the molar mass of the structure shown. Counter-ions that a name gives are not always drawn. Like-named read-outs stand apart in the source and are kept apart here.

One assay concerns E. Coli ATCC 25922. Description: Test for evaluating antibacterial activity (E. coli), broth microdilution MIC. The class given is cell-based. The note with it: Escherichia coli, ATCC25922; 35° C., 18 hours, cation-adjusted Mueller-Hinton medium. A digest of the protocol: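 Broth microdilution per modified CLSI method in cation-adjusted Mueller-Hinton medium. Inoculum from overnight heart infusion agar growth, McFarland 0.5 suspension diluted 10-fold; incubation 35° C for 18 hours. MIC taken as lowest drug concentration with no visible growth.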
(Dilution methods test growth across graded concentrations, often in twofold steps.)

For the next assay, the target named is T1, E. coli topoisomerase IV (Escherichia coli, UniProt P20083).
T1 construct: purchased Inspiralis
T1 sequence (P20083 whole entry): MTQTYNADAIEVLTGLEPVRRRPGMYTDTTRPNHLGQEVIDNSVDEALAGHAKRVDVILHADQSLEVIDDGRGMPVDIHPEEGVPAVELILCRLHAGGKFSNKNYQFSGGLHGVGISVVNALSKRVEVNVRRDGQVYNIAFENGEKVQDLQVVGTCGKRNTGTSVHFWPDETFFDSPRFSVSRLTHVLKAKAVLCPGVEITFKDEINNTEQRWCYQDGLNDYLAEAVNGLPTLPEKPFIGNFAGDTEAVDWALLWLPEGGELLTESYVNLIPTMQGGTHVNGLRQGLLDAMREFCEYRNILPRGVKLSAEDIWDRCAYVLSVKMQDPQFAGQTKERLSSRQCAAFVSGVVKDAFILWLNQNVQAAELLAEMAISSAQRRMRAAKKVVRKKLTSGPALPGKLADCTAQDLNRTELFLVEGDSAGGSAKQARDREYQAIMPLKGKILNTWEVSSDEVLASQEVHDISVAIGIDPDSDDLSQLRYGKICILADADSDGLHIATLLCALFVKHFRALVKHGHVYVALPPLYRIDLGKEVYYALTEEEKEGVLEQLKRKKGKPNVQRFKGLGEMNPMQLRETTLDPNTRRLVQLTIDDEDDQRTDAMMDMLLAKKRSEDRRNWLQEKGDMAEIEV
T1 sequence (P0AFI2 whole entry, further chain): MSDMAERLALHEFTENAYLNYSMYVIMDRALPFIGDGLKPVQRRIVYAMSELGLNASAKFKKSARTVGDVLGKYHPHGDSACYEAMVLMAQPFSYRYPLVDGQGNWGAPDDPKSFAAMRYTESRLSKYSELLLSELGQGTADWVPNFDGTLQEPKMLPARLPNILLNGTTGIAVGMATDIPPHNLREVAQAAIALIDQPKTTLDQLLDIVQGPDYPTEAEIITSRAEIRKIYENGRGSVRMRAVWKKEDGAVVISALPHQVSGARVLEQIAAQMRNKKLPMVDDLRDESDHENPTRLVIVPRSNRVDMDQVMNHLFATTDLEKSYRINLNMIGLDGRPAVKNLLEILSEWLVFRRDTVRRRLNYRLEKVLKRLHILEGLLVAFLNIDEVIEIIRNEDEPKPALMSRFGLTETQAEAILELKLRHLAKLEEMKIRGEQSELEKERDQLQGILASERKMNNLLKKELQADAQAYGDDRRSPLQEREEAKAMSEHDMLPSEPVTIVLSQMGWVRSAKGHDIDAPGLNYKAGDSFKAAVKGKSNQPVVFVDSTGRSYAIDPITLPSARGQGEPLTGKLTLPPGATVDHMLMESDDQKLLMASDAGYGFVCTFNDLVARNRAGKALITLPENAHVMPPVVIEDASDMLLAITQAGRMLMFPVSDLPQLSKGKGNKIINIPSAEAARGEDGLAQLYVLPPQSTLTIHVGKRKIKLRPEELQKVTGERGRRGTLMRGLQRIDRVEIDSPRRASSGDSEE
The assay can be described thus: Test for evaluating the activity of inhibiting E. coli topoisomerase IV enzyme (relaxation). The class given is biochemical. The method, then:
The enzymatic activity of E. coli topoisomerase IV was measured by a method comprising reacting topoisomerase IV and its substrate, supercoiled pBR322 (Inspiralis), in the presence of ATP and detecting the post-reaction supercoiled pBR322/relaxed pBR322 ratio with H19.
(§1) Specifically, to 2 ng/μL of supercoiled pBR322, E. coli topoisomerase IV enzyme (Inspiralis) was added at a final concentration of 0.0075 U/μL and the mixture was incubated for 30 minutes at room temperature. This reaction was carried out in 20 mmol/L tris-HCl buffered solution (pH 8.0) comprising 0.5 mmol/L ATP, 0.005% bridge 35, 35 mmol/L ammonium acetate, 8 mmol/L magnesium chloride, 4.6% glycerol, and 1 mmol/L dithiothreitol. To the reaction mixture, H19 was added to bring the reaction to an end; thereafter, the supercoiled pBR322/relaxed pBR322 ratio was detected at excitation wavelength/emission wavelength=485 nm/535 nm. An inhibition curve was obtained by allowing the analyte compound to be present at varying concentrations during the reaction described above.

Assay [1] has as its target T2, E. coli DNA gyrase (Escherichia coli, UniProt P0AES6).
T2 construct: made in house; host or cells: E. coli BL21 (DE3)
Description: Test for evaluating the activity of inhibiting E. coli DNA gyrase enzyme (Method 2, supercoiling, recombinant gyrA/gyrB complex). The class given is biochemical. A digest of the protocol: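 Recombinant E. coli gyrA/gyrB complex (His-tagged, BL21(DE3)-expressed, Ni-NTA purified; 0.135 nmol/mL final) supercoiled relaxed pBR322 (1 ng/μL) with 0.5 mmol/L ATP in pH 8.0 Tris buffer, 60 min at room temperature. H19 stopped the reaction; supercoiled/relaxed ratio read at 485/535 nm, inhibition curves built from varying compound concentrations.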

The subject of assay [2] is N. gonorrhoeae ATCC 49226. The assay can be described thus: Test for evaluating antibacterial activity (N. gonorrhoeae), broth microdilution MIC. It is filed as cell-based. Particulars: Neisseria gonorrhoeae, ATCC49226; 35° C., 24 hours, gonococcal broth. A digest of the protocol: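 Broth microdilution in gonococcal broth with 1% supplement C, inoculum from overnight chocolate II agar culture at McFarland 0.5 diluted 5-fold.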

Assay [3] concerns the target T2, E. coli DNA gyrase. Description: Test for evaluating the activity of inhibiting E. coli DNA gyrase enzyme (Method 1, supercoiling, Inspiralis enzyme). It is filed as biochemical. As to the method:
Test Example 1-1 Test for Evaluating the Activity of Inhibiting E. coli DNA Gyrase Enzyme (Method 1)
The enzymatic activity of E. coli DNA gyrase was measured by a method comprising reacting DNA gyrase and its substrate, relaxed pBR322 (Inspiralis), in the presence of ATP and detecting the post-reaction supercoiled pBR322/relaxed pBR322 ratio with H19 (Profoldin).
as §1, with “to 1” for “to 2”, “of relaxed” for “of supercoiled”, “coli DNA gyrase” for “coli topoisomerase IV”, “of 0.006” for “of 0.0075”, “for 60” for “for 30”, “above. […] The test results of interest are shown in [Table 20-1] and [Table 20-2].” for “above.”

[4] abbreviates: read-out: E. Coli TopoIV relaxation IC50.
[5] abbreviates: Method 2, read-out: E. Coli Gyrase supercoiling IC50.
Where [6] appears, read: Method 1, read-out: E. Coli Gyrase supercoiling IC50.

The MIC is the smallest concentration in the dilution series that meets the test's criterion for growth inhibition. Low values mean a more susceptible organism, high ones a less susceptible organism. The term IC50 denotes the concentration that gives 50% inhibition. For the compound `CNc1cc(F)cc2cc(C(=O)Nc3ccccc3CN(CCO)C3CCCCC3)c(=O)[nH]c12` [Example 123, N-(2-{[cyclohexyl(2-hydroxyethyl)amino]methyl}phenyl)-6-fluoro-8-(methylamino)-2-oxo-1,2-dihydroquinoline-3-carboxamide], it took 8 µg/mL (≈ 17.1 µM) to inhibit growth in the assay with E. Coli ATCC 25922 (MIC). Moreover, the IC50 is 615 nM on E. coli topoisomerase IV (setting [4]) and 3.59 nM at E. coli DNA gyrase [1] (setting [5]).

In the case of `CNc1cc(F)cc2cc(C(=O)Nc3ccc(C(=O)NCCN4CCOCC4)cc3)c(=O)[nH]c12` [Example 40, 6-Fluoro-8-(methylamino)-N-(4-[[2-(morpholin-4-yl)ethyl]carbamoyl]phenyl)-2-oxo-1,2-dihydroquinoline-3-carboxamide], the MIC against E. Coli ATCC 25922 came out at 4 µg/mL (≈ 8.56 µM). The values for the IC50 at E. coli topoisomerase IV (setting [4]) and at E. coli DNA gyrase [1] (setting [5]) were 1300 nM and 7.29 nM, respectively.

For the compound `CNc1cc(F)cc2cc(C(=O)Nc3ccc(C(=O)O)c(OCCN4CCN(C)CC4)c3)c(=O)[nH]c12` [Example 54, 4-{[6-fluoro-8-(methylamino)-2-oxo-1,2-dihydroquinoline-3-carbonyl]amino}-2-[2-(4-methylpiperazine-1-yl)ethoxy] benzoic acid-hydrochloride], the MIC was > 16 µg/mL in the assay with E. Coli ATCC 25922 and 1 µg/mL in assay [2]. Besides, the 50% inhibitory concentration (IC50) on E. coli DNA gyrase [3] (setting [6]) was determined as 1.9 nM.

For the compound `CNc1cccc2cc(C(=O)NC3CCN(c4ncc(C(=O)O)s4)CC3)c(=O)[nH]c12` [Example 3, 2-(4-{[8-(methylamino)-2-oxo-1,2-dihydroquinoline-3-carbonyl]amino}piperidine-1-yl)-1,3-thiazole-5-carboxylic acid], the minimum inhibitory concentration (MIC) was > 64 µg/mL with E. Coli ATCC 25922 and > 4 µg/mL in assay [2]. Also, at E. coli DNA gyrase [3] (setting [6]), the IC50 was found to be 124 nM.

`CNc1cc(F)cc2c(NCC3CCNC3)c(C(=O)Nc3ccc(C(=O)O)cc3)c(=O)[nH]c12.O=CO` (stereo not drawn) [Example 133, 4-{[6-fluoro-8-(methylamino)-2-oxo-4-{[(pyrrolidine-3-yl)methyl]amino}-1,2-dihydroqunoline-3-carbonyl]amino}benzoic acid-formate]: the MIC against E. Coli ATCC 25922 is > 16 µg/mL. In addition, the half-maximal inhibitory concentration (IC50) worked out at 160 nM on E. coli topoisomerase IV and 0.82 nM on E. coli DNA gyrase [1].

Regarding `CNc1cc(F)cc2cc(C(=O)OCc3ccncc3N)c(=O)[nH]c12` [Example 77, (3-aminopyridine-4-yl)methyl 6-fluoro-8-(methylamino)-2-oxo-1,2-dihydroquinoline-3-carboxylate], the MIC with E. Coli ATCC 25922 was > 16 µg/mL; in assay [2], 1 µg/mL (≈ 2.92 µM). Further, the 50% inhibitory concentration (IC50) at E. coli DNA gyrase [3] (setting [6]) was 24.3 nM.

Regarding `CNc1cc(F)cc2cc(C(=O)N(C)c3ccc(C(=O)O)cc3)c(=O)[nH]c12` [Example 56, 4-{[6-fluoro-8-(methylamino)-2-oxo-1,2-dihydroquinoline-3-carbonyl] (melhyl)amino} benzoic acid], the values for the MIC (against E. Coli ATCC 25922; in assay [2]) were > 64 µg/mL and 0.12 µg/mL (≈ 0.325 µM), respectively. At E. coli DNA gyrase [3], half-maximal inhibition (IC50) required 18 nM.

As for `CNc1cc(F)cc2cc(C(=O)NCCc3cccc(C(=O)O)c3)c(=O)[nH]c12` [Example 66, 3-(2-{[6-fluoro-8-(methylamino)-2-oxo-1,2-dihydroquinoline-3-carbonyl]amino}ethyl) benzoic acid], the MIC was > 32 µg/mL against E. Coli ATCC 25922 and 0.25 µg/mL (≈ 0.652 µM) in assay [2]. In addition, on E. coli DNA gyrase [3] (setting [6]), the half-maximal inhibitory concentration (IC50) came out at 0.95 nM.

For `CNc1cccc2cc(C(=O)Nc3ccc(C(=O)O)cc3)c(=O)[nH]c12` [Example 2, 4-{[8-(methylamino)-2-oxo-1,2-dihydroquinoline-3-carbonyl]amino} benzoic acid], the MIC against E. Coli ATCC 25922 is 64 µg/mL (≈ 190 µM); in assay [2], > 1 µg/mL. In addition, the IC50 at E. coli topoisomerase IV (setting [4]) came out at 980 nM.

Turning to `CNc1cc(F)cc2cc(C(=O)Nc3cncnc3)c(=O)[nH]c12` [Example 50, 6-fluoro-8-(methylamino)-2-oxo-N-(pyrimidine-5-yl)-1,2-dihydroquinoline-3-carboxamide], the MIC was > 8 µg/mL against E. Coli ATCC 25922 and 0.06 µg/mL (≈ 0.192 µM) in assay [2]. Also, the IC50 at E. coli DNA gyrase [3] (setting [6]) amounted to 1.87 nM.

Consider `CNc1cc(F)cc2cc(C(=O)Nc3cccnc3)c(=O)[nH]c12` [Example 72, 6-fluoro-8-(methylamino)-2-oxo-N-(pyridine-3-yl)-1,2-dihydroquinoline-3-carboxamide], for which the minimal inhibitory concentration (MIC) against E. Coli ATCC 25922 was > 4 µg/mL; in assay [2] it was 0.12 µg/mL (≈ 0.384 µM). In addition, the IC50 on E. coli DNA gyrase [3] (setting [6]) was found to be 8.03 nM.

Take `CNc1cccc2cc(C(=O)NCCc3cccc(C(=O)O)c3)c(=O)[nH]c12` [Example 5, 3-(2-{[8-(methylamino)-2-oxo-1,2-dihydroquinoline-3-carbonyl]amino}ethyl)benzoic acid]: the MIC with E. Coli ATCC 25922 was > 64 µg/mL. For the same compound, the results for the IC50 on E. coli topoisomerase IV (setting [4]) and at E. coli DNA gyrase [1] (setting [5]) were 17000 nM and 9.75 nM, respectively.

For the compound `CNc1cccc2cc(C(=O)Nc3cccc(=O)[nH]3)c(=O)[nH]c12` [Example 16, 8-(methylamino)-2-oxo-N-(6-oxo-1,6-dihydro-pyridine-2-yl)-1,2-dihydroquinoline-3-carboxamide], the MIC in the assay with E. Coli ATCC 25922 was > 64 µg/mL; in assay [2] it was > 4 µg/mL. Besides, the concentration for half-maximal inhibition (IC50) at E. coli DNA gyrase [3] (setting [6]) was found to be 131 nM.

`CNc1cccc2cc(C(=O)NCc3ccc(C(=O)O)cc3C)c(=O)[nH]c12` [Example 8, 3-methyl-4-({[8-(methylamino)-2-oxo-1,2-dihydroquinoline-3-carbonyl]amino}methyl)benzoic acid]: the minimum inhibitory concentration (MIC) in the assay with E. Coli ATCC 25922 is > 64 µg/mL; in assay [2], 4 µg/mL (≈ 10.9 µM). On E. coli DNA gyrase [3] (setting [6]), the IC50 amounted to 30.1 nM.

`CN=S(C)(=O)c1ccc(NC(=O)c2cc3cccc(NC)c3[nH]c2=O)cc1` (stereo not drawn) [Example 22, N-[4-(N,S-dimethane-sulfonimidoyl)phenyl]-8-(methylamino)-2-oxo-1,2-dihydroquinoline-3-carboxamide]: the MIC in the assay on E. Coli ATCC 25922 was > 8 µg/mL; in assay [2], > 4 µg/mL. In addition, the IC50 on E. coli DNA gyrase [3] (setting [6]) turned out to be 174 nM.

For the compound `CNc1cccc2cc(C(=O)Nc3ccc(-c4noc(=O)[nH]4)cc3)c(=O)[nH]c12` [Example 18, 8-(methylamino)-2-oxo-N-[4-(5-oxo-4,5-dihydro-1,2,4-oxadiazole-3-yl)phenyl]-1,2-dihydroquinoline-3-carboxamide], the minimum inhibitory concentration (MIC) was > 0.5 µg/mL with E. Coli ATCC 25922 and 0.25 µg/mL (≈ 0.662 µM) in assay [2]. Moreover, at E. coli DNA gyrase [3] (setting [6]), the IC50 stood at 15.7 nM.

Take `CNc1cc(F)cc2cc(C(=O)Nc3ccc(C(=O)O)c(O)c3)c(=O)[nH]c12` [Example 58, 4-{[6-fluoro-8-(methylamino)-2-oxo-1,2-dihydroquinoline-3-carbonyl]amino}-2-hydroxybenzoic acid]: the minimal inhibitory concentration (MIC) against E. Coli ATCC 25922 is > 32 µg/mL; in assay [2], 0.12 µg/mL (≈ 0.323 µM). Moreover, the IC50 at E. coli DNA gyrase [3] (setting [6]) amounted to 2.05 nM.

Consider `CNc1cccc2cc(C(=O)Nc3cnc(N4CCN(C)CC4)nc3)c(=O)[nH]c12` [Example 28, 8-(methylamino)-N-[2-(4 methylpiperazine-1-yl)pyrimidine-5-yl]-2-oxo-1,2-dihydroquinoline-3-carboxamide], for which the minimum inhibitory concentration (MIC) was > 16 µg/mL in the assay on E. Coli ATCC 25922 and > 4 µg/mL in assay [2]. Besides, the IC50 at E. coli DNA gyrase [3] (setting [6]) turned out to be 32 nM.

In the case of `CNc1cccc2cc(C(=O)Nc3ccccc3CN(C)C3CCCCC3)c(=O)[nH]c12` [Example 7, N-(2-[[Cyclohexyl(methyl)amino]methyl]phenyl)-8-(methylamino)-2-oxo-1,2-dihydroquinoline-3-carboxamide], the MIC against E. Coli ATCC 25922 was > 32 µg/mL; in assay [2] it was > 4 µg/mL. The IC50 at E. coli DNA gyrase [3] (setting [6]) worked out at 3.35 nM.

Turning to `CNc1cccc2cc(C(=O)NCCc3cn4cccnc4n3)c(=O)[nH]c12` [Example 29, N-[2-(imidazo [1,2-a]pyrimidine-2-yl)ethyl]-8-(methylamino)-2-oxo-1,2-dihydroquinoline-3-carboxamide], the minimal inhibitory concentration (MIC) in the assay on E. Coli ATCC 25922 is > 64 µg/mL; in assay [2], > 4 µg/mL. The IC50 on E. coli DNA gyrase [3] (setting [6]) amounted to 28.2 nM.

As for `CNc1cccc2cc(C(=O)OCc3ccncc3N)c(=O)[nH]c12` [Example 19, (3-aminopyridine-4-yl)methyl 8-(methyl-amino)-2-oxo-1,2-dihydroquinoline-3-carboxylate], the MIC is > 16 µg/mL against E. Coli ATCC 25922 and > 4 µg/mL in assay [2]. Further, the concentration for half-maximal inhibition (IC50) on E. coli DNA gyrase [3] (setting [6]) stood at 426 nM.
